From US11661418B2, “MASP-2 inhibitors and methods of use” (Omeros Corporation, priority 2019, dated 2023)
pKi: −log10 of the molar value.

target: MASP-2 (CCP1-CCP2-SP) (Homo sapiens (Human), UniProt O00187); assay: Enzymatic Assay for MASP-2 (fluorogenic substrate); assay type: biochemical; conditions: fluorogenic substrate based on C2 cleavage site; room temperature; 20 mM HEPES pH 7.4, 140 mM NaCl, 0.1% Tween 20; 20 min
Experimental: The MASP-2 assay utilizes a fluorogenic substrate, based on the cleavage site for its natural substrate C2. The assay is run at room temperature in an assay buffer containing 20 mM HEPES, pH 7.4, 140 mM NaCl and 0.1% Tween 20. Assay parameters are adjusted such that the assay is linear with respect to time, enzyme, and substrate concentrations. Under these optimized assays conditions, IC50 values are equivalent to Ki values, except in a few cases of “tight binding” inhibitors. Cases of “tight binding” or possible “slow binding” inhibitors are handled by the methods described in Copeland R.A. (2013) Evaluation of Enzyme Inhibitors in Drug Discovery. 2nd Ed., John Wiley and Sons, Inc., Chapters 5-7.
The MASP-2 assay protocol is carried out as follows. Test compounds are serially diluted in DMSO and then 100 nL of each dilution is transferred to the assay plate(s). 10 μL of Assay Buffer is added, followed by 15 μL of Enzyme MASP-2 (CCP1-CCP2-SP) in Assay Buffer. 15 μL of Substrate in Assay Buffer is then added and mixed to start the reactions. After 20 min at room temperature, 15 μL of a stop solution (0.1 M acetic acid) is added, mixed and the plates are read on a SpectraMax i3x Microplate Reader and exported as Excel files. Each assay plate included a “no inhibitor” (DMSO Only) control, a “no enzyme” control and a reference inhibitor control. % Activity values=100*(average test comp. fluorescence−average “no enzyme” fluorescence)/(average “DMSO only” fluorescence−average “no enzyme” fluorescence). IC50 and Ki values are very reproducible, falling well within 2-fold.

Sequence of MASP-2 (CCP1-CCP2-SP) (O00187 445-686): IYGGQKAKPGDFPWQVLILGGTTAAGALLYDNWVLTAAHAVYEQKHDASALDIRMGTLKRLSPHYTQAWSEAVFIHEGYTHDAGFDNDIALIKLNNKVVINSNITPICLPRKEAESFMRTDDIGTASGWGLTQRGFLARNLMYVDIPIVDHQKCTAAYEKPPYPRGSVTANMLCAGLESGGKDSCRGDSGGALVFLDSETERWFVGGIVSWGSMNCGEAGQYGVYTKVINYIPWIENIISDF
Sequence of MASP-2 (CCP1-CCP2-SP) (O00187 287-444 partner): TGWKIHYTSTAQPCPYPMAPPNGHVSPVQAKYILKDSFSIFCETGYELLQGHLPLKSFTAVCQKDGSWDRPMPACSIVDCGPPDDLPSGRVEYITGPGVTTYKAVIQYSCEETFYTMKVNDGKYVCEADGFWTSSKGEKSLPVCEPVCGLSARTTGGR

Compound	pKi
CC(C)[C@H](N)C(=O)O/N=C(\N)c1ccc(CNC(=O)[C@H](C)NC(=O)[C@H]2C[C@@H](c3ccccc3)CCN2)cc1 [Compound I-7, (2R,4S)—N—((S)-1-((4-((Z)—N′-((L-valyl)oxy)carbamimidoyl)benzyl)amino)-1-oxopropan-2-yl)-4-phenylpiperidine-2-carboxamide]	> 6.30
C[C@H](NC(=O)[C@H]1C[C@@H](c2ccccc2)CC[N+]1(C)C)C(=O)NCc1ccc(C(=N)N)cc1 [Compound I-10, (2R,4S)-2-(((S)-1-((4-carbamimidoylbenzyl)amino)-1-oxopropan-2-yl)carbamoyl)-1,1-dimethyl-4-phenylpiperidin-1-ium 2,2,2-trifluoroacetate]	> 6.30
CCOC(=O)CCN1CC[C@H](c2ccccc2)C[C@@H]1C(=O)N[C@@H](C)C(=O)NCc1ccc(C(=N)N)cc1 [Compound I-13, ethyl 3-((2R,4S)-2-(((S)-1-((4-carbamimidoylbenzyl)amino)-1-oxopropan-2-yl)carbamoyl)-4-phenylpiperidin-1-yl)propanoate]	> 6.30
C[C@H](NC(=O)[C@H]1C[C@@H](c2ccccc2)CCN1CCC(=O)O)C(=O)NCc1ccc(C(=N)N)cc1 [Compound I-14, 3-((2R,4S)-2-(((S)-1-((4-carbamimidoylbenzyl)amino)-1-oxopropan-2-yl)carbamoyl)-4-phenylpiperidin-1-yl)propanoic acid]	> 6.30
C[C@H](NC(=O)[C@H]1C[C@@H](c2ccccc2)CCN1CCP(=O)(O)O)C(=O)NCc1cc2cnccc2[nH]1 [Compound I-15, (2-((2R,4S)-2-(((S)-1-(((1H-pyrrolo[3,2-c]pyridin-2-yl)methyl)amino)-1-oxopropan-2-yl)carbamoyl)-4-phenylpiperidin-1-yl)ethyl)phosphonic acid]	> 6.30
Cc1nc(N)ccc1CNC(=O)[C@@H]1CCN1C(=O)[C@H]1C[C@@H](c2ccccc2)CCN1C [Compound I-16, (S)—N-((6-amino-2-methylpyridin-3-yl)methyl)-1-((2R,4S)-1-methyl-4-phenylpiperidine-2-carbonyl)azetidine-2-carboxamide]	> 6.30
CN1CC[C@H](c2ccccc2)C[C@@H]1C(=O)N1CC[C@H]1C(=O)NCc1ccc(C(=N)N)cc1 [Compound I-17, (S)—N-(4-carbamimidoylbenzyl)-1-((2R,4S)-1-methyl-4-phenylpiperidine-2-carbonyl)azetidine-2-carboxamide]	> 6.30
N=C(NC(=O)OCc1ccccc1)c1ccc(CNC(=O)[C@@H]2CCN2C(=O)[C@H]2C[C@@H](c3ccccc3)CCN2)cc1 [Compound I-19, benzyl (imino(4-(((S)-1-((2R,4S)-4-phenylpiperidine-2-carbonyl)azetidine-2-carboxamido)methyl)phenyl)methyl)carbamate]	5.60 to 6.30
CCN1CC[C@H](c2ccccc2)C[C@@H]1C(=O)N[C@@H](C)C(=O)NCc1ccc(C(=N)NC(=O)OCc2ccccc2)cc1 [Compound I-20, benzyl ((4-(((S)-2-((2R,4S)-1-ethyl-4-phenylpiperidine-2-carboxamido)propanamido)methyl)phenyl)(imino)methyl)carbamate]	5.00 to 5.60
CCN1CC[C@H](c2ccccc2)C[C@@H]1C(=O)N[C@@H](C)C(=O)NCc1ccc(C(=N)N)cc1 [Compound I-21, (2R,4S)—N—((S)-1-((4-carbamimidoylbenzyl)amino)-1-OXOPROPAN-2-yl)-1-ethyl-4-phenylpiperidine-2-carboxamide]	> 6.30
CCN1CC[C@H](c2cccc(-n3cccn3)c2)C[C@@H]1C(=O)N[C@@H](C)C(=O)NCc1cc(Cl)ccc1-n1cnnn1 [Compound I-22, (2R,4S)-4-(3-(1H-pyrazol-1-yl)phenyl)-N—((S)-1-((5-chloro-2-(1H-tetrazol-1-yl)benzyl)amino)-1-oxopropan-2-yl)-1-ethylpiperidine-2-carboxamide]	> 6.30
C[C@H](NC(=O)[C@H]1C[C@@H](c2ccccc2)CCN1)C(=O)NCc1ccc(/C(N)=N/O)s1 [Compound I-24, (2R,4S)—N—((S)-1-(((5-((Z)—N-hydroxycarbamimidoyl)thiophen-2-yl)methyl)amino)-1-oxopropan-2-yl)-4-phenylpiperidine-2-carboxamide]	> 6.30
C[C@H](NC(=O)[C@H]1C[C@@H](c2ccccc2)CCN1)C(=O)NCc1ccc(/C(N)=N/O)cc1 [Compound I-31, (2R,4S)—N—((S)-1-((4-((Z)—N′-hydroxycarbamimidoyl)benzyl)amino)-1-oxopropan-2-yl)-4-phenylpiperidine-2-carboxamide]	5.60 to 6.30
